Laboratory results taken from paper PMC6155021, “Ancient and modern anticonvulsants act synergistically in a KCNQ potassium channel binding pocket” (Nature Communications, 2018).

Key:
KCNQ2/3 channels [1] = target: T1, KCNQ2/3 channels (Homo sapiens, UniProt O43525+O43526); experiment: Two-electrode voltage-clamp of KCNQ2/3 channels expressed in Xenopus laevis oocytes; format: cell-based; conditions: for Non-normalized tail current V0.5 / Normalized tail current V0.5 / Slope: KCNQ2/3
Text: (§1) cRNA transcripts encoding human KCNA1, KCNQ1, KCNQ2, KCNQ3, KCNQ4, or KCNQ5 were generated by in vitro transcription using the T7 polymerase message machine kit (Thermo Fisher Scientific), after vector linearization, from cDNA sub-cloned into plasmids incorporating X. laevis β-globin 5′ and 3′ UTRs flanking the coding region to enhance translation and cRNA stability. cRNA was quantified by spectrophotometry. Mutant cDNAs were generated by site-directed mutagenesis using a QuikChange kit according to manufacturer’s protocol (Stratagene, San Diego, CA) and corresponding cRNAs prepared as above. Defolliculated stage V and VI X. laevis oocytes (Ecocyte Bioscience, Austin, TX) were injected with Kv channel α subunit cRNAs (10 ng total per oocyte). Oocytes were incubated at 16 °C in Barth’s saline solution (Ecocyte) containing penicillin and streptomycin, with daily washing, for 3–5 days prior to two-electrode voltage-clamp (TEVC) recording.
(§2) Oocytes were placed in a small-volume oocyte bath (Warner) and viewed with a dissection microscope. Chemicals were sourced from Sigma. Bath solution was (in mM): 96 NaCl, 4 KCl, 1 MgCl2, 1 CaCl2, 10 HEPES (pH 7.6). […] MTX (DMSO), sorbic acid (ethanol), and glutaconic acid (molecular grade H2O) were stored at −20 °C as 1 M stocks. Oleamide was stored as a 1 mM stock in ethanol at 4 °C. Palmitic acid was conjugated with bovine serum albumin as a 1 mM stock and stored at −20 °C. All compounds were diluted to working concentrations each experimental day. All compounds were introduced to the recording bath via gravity perfusion at a constant flow of 1 ml/min for 3 min prior to recording. Pipettes were of 1–2 MΩ resistance when filled with 3 M KCl. Currents were recorded in response to pulses between −80 and +40 mV at 20 mV intervals, or a single pulse to +40 mV, from a holding potential of −80 mV, to yield current–voltage relationships, current magnitude, and for quantifying activation rate. TEVC data analysis was performed with Clampfit10.2 (Molecular Devices) and Graphpad Prism software (GraphPad, San Diego, CA, USA); values are stated as mean ± SEM. Normalized tail currents were plotted versus prepulse voltage and fitted with a single Boltzmann function:1 g=A1-A2/1+expV12-Vy+A2, where g is the normalized tail conductance, A1 is the initial value at −∞, A2 is the final value at +∞, V1/2 is the half-maximal voltage of activation, and Vs the slope factor. Activation and deactivation kinetics were fitted with single-exponential functions.

[2] = target: KCNQ2-W236L/KCNQ3-W265L channels (Homo sapiens, UniProt O43525+O43526, W236L/W265L); experiment: Two-electrode voltage-clamp of W236L-Q2/W265L-Q3 mutant channels in Xenopus oocytes; format: cell-based; conditions: 100 µM
Text: as §1, §2

KCNQ2/3 channels [3] = target: T1, KCNQ2/3 channels; conditions: previously found, cited from earlier work
[4] = system: pentylene tetrazole-induced seizures; experiment: PTZ chemoconvulsant assay; format: in vivo, mouse; conditions: mice
Text: We compared anticonvulsant activities of test compounds in male C57BL/6 mice (Charles River) aged 2–3 months. Mice were housed and used according to the recommendations in the Guide for the Care and Use of Laboratory Animals of the National Institutes of Health (NIH Publication, 8th edition, 2011). The study protocol was approved by the Institutional Animal Care and Use Committee of University of California, Irvine, which confirmed that all relevant ethical regulations were adhered to. Chemicals were sourced from Sigma (St. Louis, MO, USA) . A pentylene tetrazole (PTZ) chemoconvulsant assay was used[54]. […] Following the PTZ injection, mice were caged individually and an observer (GWA) blinded to the drug used recorded, over 20 min, clonic and tonic seizure incidence, and seizure-related mortality.
All values are expressed as mean ± SEM. Chi-squared analysis was used to compare seizure-related mortality in mice. One-way ANOVA was applied for all other tests; if multiple comparisons were performed, a post-hoc Tukey’s HSD test was performed following ANOVA. All p-values were two-sided. Statistical significance was defined as p < 0.05.

KCNA1 = KCNA1 (Homo sapiens, UniProt Q09470); experiment: Two-electrode voltage-clamp of KCNA1 in Xenopus oocytes; format: cell-based
Sequence of KCNA1 (Q09470 whole entry): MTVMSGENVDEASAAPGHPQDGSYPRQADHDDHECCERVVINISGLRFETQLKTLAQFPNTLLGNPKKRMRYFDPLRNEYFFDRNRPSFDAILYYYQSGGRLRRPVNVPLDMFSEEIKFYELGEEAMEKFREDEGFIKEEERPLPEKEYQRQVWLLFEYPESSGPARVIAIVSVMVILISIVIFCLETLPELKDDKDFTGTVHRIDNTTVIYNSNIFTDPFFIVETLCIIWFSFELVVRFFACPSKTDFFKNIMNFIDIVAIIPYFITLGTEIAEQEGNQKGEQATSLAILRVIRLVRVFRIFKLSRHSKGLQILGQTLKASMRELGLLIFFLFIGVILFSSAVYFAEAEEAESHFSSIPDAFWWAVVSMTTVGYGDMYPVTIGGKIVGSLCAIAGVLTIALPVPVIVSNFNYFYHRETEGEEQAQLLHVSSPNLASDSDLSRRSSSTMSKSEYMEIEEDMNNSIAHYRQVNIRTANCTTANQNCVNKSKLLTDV
Text: as §1
as §2, with “TEVC data analysis was performed with Clampfit10.2 (Molecular Devices) and Graphpad Prism software (GraphPad, San Diego, CA, USA); values are stated as mean ± SEM. Normalized tail currents were plotted versus prepulse voltage and fitted with a single Boltzmann function:1 g=A1-A2/1+expV12-Vy+A2, where g is the normalized tail conductance, A1 is the initial value at −∞, A2 is the final value at +∞, V1/2 is the half-maximal voltage of activation, and Vs the slope factor. Activation and deactivation kinetics were fitted with single-exponential functions.” left out

[5] = cited from earlier work
KCNQ2–5 = conditions: cited from earlier work
KCNQ2 [6] = target: T2, KCNQ2 (Homo sapiens, UniProt O43526); parameters: method as in PMID 11466425; conditions: 10 µM RTG; cited from earlier work
KCNQ3* (KCNQ3-A315T) = KCNQ3* (KCNQ3-A315T) (Homo sapiens, UniProt O43525, A315T); experiment: cell-based; format: cell-based; conditions: KCNQ3*; 1 µM
Sequence of KCNQ3* (KCNQ3-A315T) (O43525 whole entry A315T, looked up): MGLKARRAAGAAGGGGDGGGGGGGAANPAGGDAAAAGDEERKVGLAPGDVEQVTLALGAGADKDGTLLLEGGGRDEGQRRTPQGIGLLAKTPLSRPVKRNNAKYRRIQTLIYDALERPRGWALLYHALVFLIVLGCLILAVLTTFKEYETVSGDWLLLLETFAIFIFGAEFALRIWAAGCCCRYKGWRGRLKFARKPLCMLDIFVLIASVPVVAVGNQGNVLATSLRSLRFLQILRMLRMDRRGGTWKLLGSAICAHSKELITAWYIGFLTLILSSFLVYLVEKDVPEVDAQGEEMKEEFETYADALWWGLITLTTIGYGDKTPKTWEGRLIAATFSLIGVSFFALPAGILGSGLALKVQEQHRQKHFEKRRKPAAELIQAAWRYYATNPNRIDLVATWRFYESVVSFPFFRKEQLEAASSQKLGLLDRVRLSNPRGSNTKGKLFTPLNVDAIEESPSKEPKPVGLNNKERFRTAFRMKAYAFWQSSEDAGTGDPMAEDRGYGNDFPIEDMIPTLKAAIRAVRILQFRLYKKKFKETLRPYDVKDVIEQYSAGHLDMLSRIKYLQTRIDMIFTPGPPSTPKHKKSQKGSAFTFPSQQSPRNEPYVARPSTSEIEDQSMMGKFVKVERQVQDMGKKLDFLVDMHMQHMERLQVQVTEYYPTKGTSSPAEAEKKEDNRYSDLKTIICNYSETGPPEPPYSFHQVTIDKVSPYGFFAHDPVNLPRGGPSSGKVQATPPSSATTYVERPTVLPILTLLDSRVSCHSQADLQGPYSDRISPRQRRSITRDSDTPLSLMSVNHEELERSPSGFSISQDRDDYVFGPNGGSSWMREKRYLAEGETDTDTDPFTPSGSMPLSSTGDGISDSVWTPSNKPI
Text: as §1, §2

KCNQ4 = KCNQ4 (Homo sapiens, UniProt P56696); experiment: cell-based; format: cell-based; conditions: KCNQ4; 1 µM
Text: as §1, §2

KCNQ5 = KCNQ5 (Homo sapiens, UniProt Q9NR82); experiment: cell-based; format: cell-based; conditions: KCNQ5; 1 µM
Text: as §1, §2

KCNQ2 [7] = target: T2, KCNQ2; experiment: Two-electrode voltage-clamp of homomeric KCNQ2 in Xenopus oocytes; format: cell-based; conditions: KCNQ2; 1 µM
Text: as §1, §2

[8] = parameters: method as in PMID 24781306; conditions: cited from earlier work

## Oc1ccccc1S [2-Mercaptophenol, 2-mercaptophenol]
KCNQ2/3 channels [1]; 100 µM, tail currents at −30 mV
  effect on voltage dependence of KCNQ2/3 activation (initial screen): positive-shifted
KCNQ2/3 channels [1]; 2-mercaptophenol 100 µM with MTX 30 µM
  effect of 2-mercaptophenol on ability of MTX to activate KCNQ2/3: did not alter
KCNQ2/3 channels [1]; 0.01 µM
  Non-normalized tail current V0.5: -37.2 ± 3.7 mV
  Normalized tail current V0.5: -37.7 ± 1.5 mV
  Slope: 7.4 ± 1.6 mV
KCNQ2/3 channels [1]; 0.1 µM
  Non-normalized tail current V0.5: -40.9 ± 3.2 mV
  Normalized tail current V0.5: -43.4 ± 3.6 mV
  Slope: 5.4 ± 1.2 mV
KCNQ2/3 channels [1]; 1 µM
  Non-normalized tail current V0.5: -43.2 ± 2.6 mV
  Normalized tail current V0.5: -43.6 ± 0.8 mV
  Slope: 6.4 ± 0.9 mV
KCNQ2/3 channels [1]; 10 µM
  Non-normalized tail current V0.5: -43.2 ± 2.8 mV
  Normalized tail current V0.5: -43.7 ± 1.1 mV
  Slope: 7.4 ± 1.1 mV
KCNQ2/3 channels [1]; 100 µM
  Non-normalized tail current V0.5: -34.5 ± 4.6 mV
  Normalized tail current V0.5: -29.5 ± 2.5 mV
  Slope: 5.0 ± 1.2 mV
KCNQ2/3 channels [1]; 300 µM
  Non-normalized tail current V0.5: -22.5 ± 7.2 mV
  Normalized tail current V0.5: -19.8 ± 1.4 mV
  Slope: 8.3 ± 0.9 mV
KCNQ2/3 channels [1]; activating at lower concentrations
  concentration at which KCNQ2/3 inhibition begins: ~ 100 µM
[2]
  sensitivity of KCNQ2-W236L/KCNQ3-W265L channels: insensitive
[2]; W236L-Q2/W265L-Q3
  Non-normalized tail current V0.5: -53.8 ± 1.7 mV
  Normalized tail current V0.5: -51.0 ± 4.2 mV

## NCC(O)CC(=O)O (stereo not drawn) [GABOB, γ-amino-β-hydroxybutyric acid, reference compound]
KCNQ2/3 channels [3]; high affinity partial agonist
  EC50: 120 nM
KCNQ2/3 channels [1]; GABOB 100 µM with IVA 500 µM
  effect of GABOB on IVA effects on KCNQ2/3: highly effective at competing out effects of IVA
KCNQ2/3 channels [1]; GABOB 100 µM with MTX 30 µM
  effect of GABOB on MTX effects on KCNQ2/3: only partially diminishes

## CC(C)CC(=O)O [IVA, isovaleric acid]
[4]; 10 mg/kg i.p. alone
  clonic seizure incidence: neither compound reduced clonic seizures alone
[4]; 20 mg/kg i.p., 30 min before 80 mg kg−1 PTZ
  clonic seizure incidence: no effect
[4]; individually
  suppression of PTZ-induced tonic seizures: ineffective
KCNA1; KCNA1 (table title), 500 µM
  Slope: 6.9 ± 1.1 mV
KCNA1; MTX concentration not given, IVA 500 µM
  effect on KCNA1 currents: did not alter currents

## CC(C)CC(N)=O [Isovaleramide, isovaleramide]
[5]
  passage through biological membranes: readily passes though biological membranes
[5]; humans
  mean Tmax: 0.5 to 0.75 h
  mean elimination half-life: 2.5 h
  well tolerated dose: at least 2400 mg per day

## CCOC(=O)Nc1ccc(NCc2ccc(F)cc2)cc1N [Retigabine, retigabine, reference compound]
KCNQ2–5
  order of potency across KCNQ isoforms: KCNQ3 > KCNQ2/3 > KCNQ2 > KCNQ4 > KCNQ5
KCNQ2 [6]
  shift in midpoint voltage of activation: −24 mV
KCNQ2/3 channels [1]; 1 µM alone
  effects on KCNQ2/3: negligible effects
KCNQ2/3 channels [1]; 1 µM
  Non-normalized tail current V0.5: -41.7 ± 2.3 mV
  Normalized tail current V0.5: -41.9 ± 0.7 mV
KCNQ2/3 channels [1]; 10 µM
  Non-normalized tail current V0.5: -61.8 ± 4.8 mV
  Normalized tail current V0.5: -61.4 ± 1.1 mV
  Slope: 6.7 ± 1.1 mV
KCNQ2/3 channels [1]; RTG 10 µM
  shift of KCNQ2/3 activation V0.5: −13 mV
KCNQ3* (KCNQ3-A315T)
  Non-normalized tail current V0.5: -63.9 ± 7.7 mV
  Normalized tail current V0.5: -61.9 ± 2.2 mV
KCNQ4
  Non-normalized tail current V0.5: -10.2 ± 7.5 mV
  Normalized tail current V0.5: -9.7 ± 1.1 mV
KCNQ5
  Non-normalized tail current V0.5: -45.8 ± 2.8 mV
  Normalized tail current V0.5: -46.0 ± 0.9 mV
KCNQ2 [7]
  Non-normalized tail current V0.5: -51.6 ± 6.6 mV
  Normalized tail current V0.5: -51.7 ± 0.7 mV

## CC(=O)O [acetate]
[8]
  crossing of the blood brain barrier: readily cross the blood brain barrier

## CCCCC(=O)O [valeric acid]
KCNQ2/3 channels [3]
  ability to activate KCNQ2/3 channels: inactive
